# Literature values, collected in patent US20260216276A1, “COMPOSITIONS AND METHODS FOR MODULATING COMPLEMENT ACTIVITY” (UCB HOLDINGS, INC., priority 2019, published 2026).
# Starred links: 1 amine or outer side, 2 acyl side, 3 side chain; linkers in the order of their positions; H or OH if unused. Positions of bridges follow the written chain, without caps; N, C: chain ends. Non-standard residues stand in square brackets, D forms with d. Residues, ends and D or L forms follow the SMILES beside them. Groups on a side chain read outwards from the residue. *: point of attachment. PEG24 = NCCOCCOCCOCCOCCOCCOCCOCCOCCOCCOCCOCCOCCOCCOCCOCCOCCOCCOCCOCCOCCOCCOCCOCCOCCC(=O)O; X1 = N=C(N)NCCC[C@H](N[*:1])C(=O)C[C@@H](Cc1ccccc1)C(=O)[*:2]; Trp(7-aza) = N[C@@H](Cc1c[nH]c2ncccc12)C(=O)O; γGlu = O=C(O)[C@H](CCC(=O)[*:2])N[*:1]; Palmitoyl = CCCCCCCCCCCCCCCC(=O)*; NMeD = CN[C@@H](CC(=O)O)C(=O)O; Chg = N[C@H](C(=O)O)C1CCCCC1; Tle = CC(C)(C)[C@H](N)C(=O)O
# Experiments:
# [1] = tested on: complement component 5 (C5); settings: including p.R885>H/C; cited from earlier work
# [2] = tested on: surface-bound C5b-9 or soluble membrane attack complex (sC5b-9); settings: unlike eculizumab; cited from earlier work
compound,measurement,setting,value
CCCCCCCCCCCCCCCC(=O)N[C@@H](CCC(=O)NCCOCCOCCOCCOCCOCCOCCOCCOCCOCCOCCOCCOCCOCCOCCOCCOCCOCCOCCOCCOCCOCCOCCOCCOCCC(=O)NCCCC[C@H](NC(=O)[C@@H](NC(=O)[C@@H]1CCCN1C(=O)[C@H](Cc1ccc(O)cc1)NC(=O)[C@H](CCC(=O)[O-])NC(=O)[C@H](Cc1c[nH]c2ncccc12)NC(=O)[C@H](Cc1ccc(O)cc1)NC(=O)[C@@H](NC(=O)[C@H](CC(=O)[O-])N(C)C(=O)[C@@H]1CC(=O)NCCCC[C@H](NC(C)=O)C(=O)N[C@@H](C(C)C)C(=O)N[C@@H](CCC(=O)O)C(=O)N[C@@H](CCCNC(=N)N)C(=O)C[C@@H](Cc2ccccc2)C(=O)N1)C(C)(C)C)C1CCCCC1)C(=O)[O-])C(=O)[O-].[Na+].[Na+].[Na+].[Na+] [zilucoplan] (Ac-KVE[X1]D[NMeD][Tle]Y[Trp(7-aza)]EYP[Chg]K([PEG24-γGlu-Palmitoyl])-OH; lactam 1-5),binding and inhibitory activities in the presence of clinically relevant human C5 polymorphisms,[1],not affected
same,binding to surface-bound C5b-9 or sC5b-9,[2],does not bind
